Experimental data as given in patent publication US6476019B1, “Spirocyclic ligands for sigma receptors, and libraries and methods of use thereof” (Sepracor Inc., priority 1999, dated 2002).
pIC50: −log10 of the molar value. ≈ marks a conversion by molar mass, not a printed value. Like-named read-outs stand apart in the source and are kept apart here.

Assays:
[1] = tested on: [3H]haloperidol binding sites in guinea pig brain; conditions: cited from earlier work
[2] = Permeability; type: in vitro ADME; conditions: not told; read-out: Permeability PupperX10^6 cm/s
[3] = tested on: Male Wistar rats; test: MK-801-Induced Psychosis Model; type: in vivo, rat; conditions: rat, 0.5, 1.0 and 5.0 mg/kg i.p.; MK-801 0.3 mg/kg i.p.
Source text: The non-competitive NMDA receptor antagonist MK-801 induces stereotypies and hyperactivity in rodents (1) by interacting with the NMDA receptor-associated ion channel. Phencyclidine, which also interferes with the NMDA receptor, produces psychotic effects in humans similar in many respects to schizophrenia. […] Therefore the MK-801-induced activity and stereotypies in rats may represent an appropriate animal model to test the potential efficacy of antipsychotic drugs.
Male Wistar rats (Iffa Crédo, St Germain/l'Arbresle, France), weight 250-300 g were housed 2 per cage on a 12 h/12 h light dark cycle (lights on at 7.00 a.m.) at a room temperature of 21±2° C. for a minimum of 5 days before testing. All animals had access to commercial food and tap water ad libitum.
On the day of the experiment, rats were treated with either reference drug vehicle, the reference drugs haloperidol or clozapine the test compound vehicle or test compounds. After administration, the rats were returned to their home cages for 15 minutes. […] The remaining rats treated with placebo received a second injection of vehicle. The standard injection volume was 2.0 ml/kg. After 10 minutes in the home cages, rats were transferred to the test box (Plexiglas, 29×12×12 cm), 5 minutes before the assessment for accomodation. The test box was cleaned with 70% ethanol before each assessment. Stereotypies, defined as wall-contacts with the snout, and locomotion, defined as turn-rounds of 180°, were assessed during 5 minute periods.

[4] = target: human sigma receptor (Homo sapiens, UniProt Q99720); test: Human sigma receptor assay; type: binding; conditions: read-out: IC50 Against Human Sigma Receptor
human sigma receptor, sequence (Q99720 whole entry): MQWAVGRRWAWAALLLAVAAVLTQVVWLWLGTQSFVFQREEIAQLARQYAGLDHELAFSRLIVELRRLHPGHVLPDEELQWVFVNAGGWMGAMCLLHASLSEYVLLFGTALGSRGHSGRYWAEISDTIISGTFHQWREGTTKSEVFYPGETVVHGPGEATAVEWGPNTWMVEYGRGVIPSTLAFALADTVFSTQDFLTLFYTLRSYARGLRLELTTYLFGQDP
Protocol: (§1) The ability of test compounds to displace sigma ligands in vitro was determined by the methods of de Costa et al. (FEBS Lett. 251:53 (1989)) and De Haven-Hudkine et al. (Eur. J. Pharmacol. 227:372 (1992)) having guinea pig as a receptor source. Whereas, the methods of Gamapatju et al. (J. Pharm.&Exp. 289:251 (1999)) were utilized for human sigma receptors.

[5] = target: T1, guinea pig sigma receptor (Cavia porcellus, UniProt Q60492); test: Guinea pig sigma receptor assay; type: binding; conditions: read-out: IC50 Against Guinea Pig Sigma Receptor
T1 construct: having guinea pig as a receptor source; from tissue; host or cells: guinea pig
T1 sequence (Q60492 whole entry): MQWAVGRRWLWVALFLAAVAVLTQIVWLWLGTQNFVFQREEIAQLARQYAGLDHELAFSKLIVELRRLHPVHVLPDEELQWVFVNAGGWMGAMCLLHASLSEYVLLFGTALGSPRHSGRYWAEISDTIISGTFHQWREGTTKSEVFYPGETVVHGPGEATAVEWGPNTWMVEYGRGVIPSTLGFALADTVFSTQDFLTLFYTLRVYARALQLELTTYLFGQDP
Protocol: as §1

[6] = Log D7.5
[7] = Solubility
[8] = Protein Binding
[9] = Metabolic Stability
[10] = tested on: GSH Level; test: Safety Assessment: GSH Level
[11] = tested on: RedOx State; test: Safety Assessment: RedOx State
[12] = tested on: DNA Synthesis; test: Safety Assessment: DNA Synthesis
[13] = tested on: Cell Viability; test: Safety Assessment: Cell Viability
[14] = tested on: Protein Synthesis; test: Safety Assessment: Protein Synthesis
[15] = tested on: Membrane Integrity; test: Safety Assessment: Membrane Integrity
[16] = tested on: Caspase-3; test: Safety Assessment: Caspase-3 Induction
[17] = target: T2, CYP1A2 (Homo sapiens, UniProt P05177); test: In Vitro Metabolism (isozymes of P450) CYP1A2
T2 sequence (P05177 1-516): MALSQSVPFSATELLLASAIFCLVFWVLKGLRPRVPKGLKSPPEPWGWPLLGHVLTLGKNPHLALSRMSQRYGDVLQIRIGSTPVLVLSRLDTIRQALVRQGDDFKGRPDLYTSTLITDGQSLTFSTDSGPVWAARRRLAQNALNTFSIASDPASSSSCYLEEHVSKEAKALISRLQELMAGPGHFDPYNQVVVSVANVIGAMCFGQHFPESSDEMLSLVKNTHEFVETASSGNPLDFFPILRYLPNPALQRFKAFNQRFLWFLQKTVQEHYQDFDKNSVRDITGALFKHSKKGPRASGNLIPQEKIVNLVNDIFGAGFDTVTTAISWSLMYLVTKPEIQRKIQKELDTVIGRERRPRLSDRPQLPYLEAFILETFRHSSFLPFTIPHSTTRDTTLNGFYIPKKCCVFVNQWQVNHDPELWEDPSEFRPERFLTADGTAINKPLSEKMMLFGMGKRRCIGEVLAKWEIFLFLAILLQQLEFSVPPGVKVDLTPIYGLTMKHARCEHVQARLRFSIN

[18] = target: T3, CYP2C9 (Homo sapiens, UniProt P11712); test: In Vitro Metabolism (isozymes of P450) CYP2C9
T3 sequence (P11712 whole entry): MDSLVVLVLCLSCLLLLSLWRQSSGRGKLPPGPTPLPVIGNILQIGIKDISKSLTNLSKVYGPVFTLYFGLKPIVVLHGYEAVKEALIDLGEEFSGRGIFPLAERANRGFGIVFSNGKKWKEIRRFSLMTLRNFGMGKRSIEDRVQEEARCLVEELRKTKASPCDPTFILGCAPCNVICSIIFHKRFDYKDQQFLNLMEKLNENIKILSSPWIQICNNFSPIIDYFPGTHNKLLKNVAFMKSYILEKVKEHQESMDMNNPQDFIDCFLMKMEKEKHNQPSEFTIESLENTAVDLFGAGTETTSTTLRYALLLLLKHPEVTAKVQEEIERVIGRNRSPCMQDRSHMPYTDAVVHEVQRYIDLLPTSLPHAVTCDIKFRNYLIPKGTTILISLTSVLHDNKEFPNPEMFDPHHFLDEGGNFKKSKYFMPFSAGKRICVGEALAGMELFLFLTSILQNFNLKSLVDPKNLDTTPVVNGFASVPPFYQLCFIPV

[19] = target: T4, CYP2D6 (Homo sapiens, UniProt P10635); test: In Vitro Metabolism (isozymes of P450) CYP2D6
T4 sequence (P10635 whole entry): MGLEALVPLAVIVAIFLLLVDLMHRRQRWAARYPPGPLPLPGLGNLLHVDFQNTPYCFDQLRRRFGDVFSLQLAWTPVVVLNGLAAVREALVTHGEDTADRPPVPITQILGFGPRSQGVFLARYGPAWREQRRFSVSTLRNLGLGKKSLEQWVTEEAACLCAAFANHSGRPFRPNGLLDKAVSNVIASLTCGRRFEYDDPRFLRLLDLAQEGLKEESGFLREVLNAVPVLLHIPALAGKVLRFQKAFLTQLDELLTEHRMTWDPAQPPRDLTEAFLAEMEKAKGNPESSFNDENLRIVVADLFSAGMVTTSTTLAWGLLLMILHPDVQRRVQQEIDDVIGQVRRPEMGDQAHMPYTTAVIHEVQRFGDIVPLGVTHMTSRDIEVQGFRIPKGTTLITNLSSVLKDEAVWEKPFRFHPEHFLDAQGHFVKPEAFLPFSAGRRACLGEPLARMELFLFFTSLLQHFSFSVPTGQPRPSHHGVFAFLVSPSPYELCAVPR

[20] = target: T5, CYP3A4 (Homo sapiens, UniProt P08684); test: In Vitro Metabolism (isozymes of P450) CYP3A4
T5 sequence (P08684 whole entry): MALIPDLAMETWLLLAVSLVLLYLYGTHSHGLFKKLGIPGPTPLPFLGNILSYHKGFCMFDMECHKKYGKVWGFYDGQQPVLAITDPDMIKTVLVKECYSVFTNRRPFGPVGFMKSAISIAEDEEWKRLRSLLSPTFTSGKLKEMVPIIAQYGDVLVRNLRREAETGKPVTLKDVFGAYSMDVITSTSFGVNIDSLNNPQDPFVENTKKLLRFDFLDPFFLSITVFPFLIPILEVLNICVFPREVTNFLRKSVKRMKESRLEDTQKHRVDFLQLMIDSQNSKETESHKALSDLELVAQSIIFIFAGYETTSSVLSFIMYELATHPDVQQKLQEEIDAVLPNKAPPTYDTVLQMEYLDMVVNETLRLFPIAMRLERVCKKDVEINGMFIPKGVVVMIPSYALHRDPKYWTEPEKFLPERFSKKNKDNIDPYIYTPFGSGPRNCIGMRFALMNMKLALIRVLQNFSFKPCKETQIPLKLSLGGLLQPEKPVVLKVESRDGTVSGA

[21] = target: T6, CYP2C19 (Homo sapiens, UniProt P33261); test: In Vitro Metabolism (isozymes of P450) CYP2C19
T6 sequence (P33261 whole entry): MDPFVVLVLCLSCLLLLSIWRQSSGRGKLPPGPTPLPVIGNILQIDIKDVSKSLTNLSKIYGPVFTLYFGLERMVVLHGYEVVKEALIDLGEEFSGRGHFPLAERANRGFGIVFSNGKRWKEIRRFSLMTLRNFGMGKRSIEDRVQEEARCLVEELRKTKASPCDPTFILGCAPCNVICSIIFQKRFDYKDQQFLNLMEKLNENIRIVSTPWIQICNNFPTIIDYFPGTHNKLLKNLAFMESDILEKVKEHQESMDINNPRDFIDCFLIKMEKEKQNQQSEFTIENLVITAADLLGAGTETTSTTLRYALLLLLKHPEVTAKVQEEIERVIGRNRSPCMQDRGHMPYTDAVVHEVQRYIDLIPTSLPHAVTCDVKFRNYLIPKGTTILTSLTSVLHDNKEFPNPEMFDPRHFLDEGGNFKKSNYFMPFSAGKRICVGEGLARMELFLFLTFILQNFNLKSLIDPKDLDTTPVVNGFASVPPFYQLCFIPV

[22] = target: T7, sigma-1 receptor (guinea pig brain) (Cavia porcellus, UniProt Q60492); test: Antagonism of haloperidol binding to guinea pig sigma-1 receptors; conditions: sigma-1, guinea pig brain; for % Inhibition: test concentration not given
T7 construct: from tissue; host or cells: guinea pig brain
T7 sequence (Q60492 whole entry): as the sequence (Q60492 whole entry) above

[23] = target: T2, CYP1A2
[24] = target: sigma-1 receptors (Cavia porcellus, UniProt Q60492); test: Behavioral receptor assays: sigma-1; type: binding; conditions: guinea pig
sigma-1 receptors, sequence (Q60492 whole entry): as above
Protocol: (§2) Various compounds of the present invention (19, 31, and 32) were evaluated in a group of assays based on mammalian cellular receptors associated with behavior. The group consisted of assays base on human dopamine D1, D2L, D3, D4.2, D4.4, D4.7, and D5 receptors, and the transporter; human serotonin 5-HT1A, 5-HT1B, 5-HT1D, 5-HT2A, 5-HT2B, 5-HT2C, 5-HT3, 5-HT5A, 5-HT6, and 5-HT7 receptors, and the human serotonin transporter; guinea pig 5-HT4 and sigma-1 receptors; rat sigma-2 and muscarinic receptors; and human NK1-3 receptors. The following table presents a subset of the results of these assays.

[25] = target: human serotonin 5-HT2A (Homo sapiens, UniProt P28223); test: Behavioral receptor assays: 5-HT2A; type: binding; conditions: read-out: Receptors (IC50) 5-HT2A
human serotonin 5-HT2A, sequence (P28223 whole entry): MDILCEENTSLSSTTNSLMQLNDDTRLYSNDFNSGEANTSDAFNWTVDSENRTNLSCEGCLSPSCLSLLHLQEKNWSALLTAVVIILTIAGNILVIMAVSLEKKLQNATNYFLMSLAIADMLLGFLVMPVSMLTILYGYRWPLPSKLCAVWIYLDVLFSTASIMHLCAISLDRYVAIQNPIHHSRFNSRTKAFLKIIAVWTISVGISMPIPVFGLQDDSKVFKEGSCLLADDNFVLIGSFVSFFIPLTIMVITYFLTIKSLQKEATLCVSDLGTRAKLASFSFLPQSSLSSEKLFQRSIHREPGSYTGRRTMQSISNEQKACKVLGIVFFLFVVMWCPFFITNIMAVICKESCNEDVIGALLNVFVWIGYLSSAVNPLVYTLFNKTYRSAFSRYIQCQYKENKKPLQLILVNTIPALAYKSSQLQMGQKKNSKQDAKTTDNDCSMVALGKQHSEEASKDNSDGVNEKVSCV
Protocol: as §2

[26] = pH 7.5
[27] = target: T3, CYP2C9
[28] = target: T4, CYP2D6
[29] = target: T6, CYP2C19
[30] = target: T5, CYP3A4
[31] = tested on: GSH Level
[32] = tested on: Cell Viability
[33] = tested on: Caspase-3
[34] = tested on: Membrane Integrity
[35] = tested on: RedOx State
[36] = physchem
[37] = in vitro

Structure (SMILES) | Papp [2] [×10⁻⁶ cm/s] | MK-801-induced locomotion [3] | MK-801-induced stereotypies [3] | Log D7.5 [6] | solubility [7] [µM] | fraction unbound [8] | Metabolic Stability (% parent remaining) [9] [% parent remaining] | GSH Level (% Control) [10] [% Control] | RedOx State [11] [% inhibition] | DNA Synthesis [12] [% inhibition] | Cell Viability [13] [% inhibition] | Protein Synthesis [14] [% inhibition] | Membrane Integrity [15] [% inhibition] | Caspase-3 Induction % Induction [16] [% Induction] | CYP1A2 [17] [% inhibition] | CYP2C9 [18] [% inhibition] | CYP2D6 [19] [% inhibition] | CYP3A4 [20] [% inhibition] | CYP2C19 [21] [% inhibition] | % Inhibition [22] [%] | further results
CC(C)=CCN1CCC2(C)c3cc(O)ccc3CC1C2C (single isomer, unassigned; (+)) [(+)-pentazocine] | – | – | – | – | – | – | – | – | – | – | – | – | – | – | – | – | – | – | – | – | potency in displacing [3H]haloperidol relative to spiperone [1]: about 10 times
O[C@@H]1CCC2(CCN(Cc3ccc(F)cc3)CC2)Nc2ccccc21 [Compound 50] | 25.8 | caused a reduction | caused a reduction | 1.62 | 205 (≈ 69.8 µg/mL) | 0.38 | 87 | <10 | 12 | <10 | <10 | <10 | <10 | <10 | 14 | 19 | 31 | 19 | 19 | – | pIC50 [4]: > 6.00; pIC50 [5]: > 7.00
O=C1CCC2(CCN(Cc3nc4ccccc4[nH]3)CC2)Nc2ccccc21 [Compound 21, 1′-(2-methylbenzimidazole)-3,4-dih drospiro[5H-1-benzazepine-2(1H)-4′-piperidin]-5-one] | 1.95 | – | – | 1.22 | 210 (≈ 75.6 µg/mL) | 0.01 | 17 | <10 | 33 | 29 | <10 | 14 | <10 | <10 | – | 19 | 100 | 69 | 20 | >50 | pIC50 [22]: > 6.00; CYP1A2 [23]: 20 % inhibition
O[C@H]1CCC2(CCN(Cc3ccc(F)cc3)CC2)Nc2ccccc21 [Compound 49] | 27.5 | did not reduce | did not reduce | 1.59 | 181 (≈ 61.6 µg/mL) | 0.37 | 69 | <10 | 15 | <10 | <10 | <10 | <10 | <10 | 13 | 18 | 44 | 17 | 19 | – | pIC50 [4]: > 7.00; pIC50 [5]: > 7.00
O=C1CCC2(CCN(CCc3ccccc3)CC2)Nc2ccccc21 [Compound 19] | – | – | – | – | – | – | – | – | – | – | – | – | – | – | – | – | – | – | – | >50 | pIC50 [24]: > 7.00; pIC50 [25]: > 6.00
O=C1CCC2(CCNCC2)Nc2ccccc21 [Compound 11, 3,4-Dihydrospiro[5H-1-benzazepine-2(1H), 4′-piperidin]-5-one] | 4.7 | – | – | – | – | – | – | – | – | <10 | – | 42 | – | – | <10 | – | – | – | – | <50 | pIC50 [22]: < 6.00; Log D7.5 [26]: 0.48; CYP2C9 [27]: <10 % inhibition; CYP2D6 [28]: 15 % inhibition; CYP2C19 [29]: <10 % inhibition; CYP3A4 [30]: <10 % inhibition; GSH Level (% Control) [31]: <10 % Control; Cell Viability [32]: <10 % inhibition; Caspase-3 Induction % Induction [33]: <10 % Induction; Membrane Integrity [34]: <10 % inhibition; RedOx State [35]: <10 % inhibition; solubility [36]: 202 µM (≈ 46.5 µg/mL); fraction unbound [37]: 0.3
